In brackets after ≈: the same amount, converted by molar mass.
Conditions: buffer; pH 7.4; 200.0 µM

Compound | solubility kinetic [µg/mL]
O=C(Nc1ccccn1)Nc1ccccc1[N+](=O)[O-] | 2.9 (≈ 11.2 µM)
COC(=O)[C@H](CC(C)C)NC(=O)Nc1ccccc1F | > 42.3
O=C(COC(=O)c1c[nH]c2ccccc12)NC1CCCCC1 | 13.4 (≈ 44.6 µM)
CN(Cc1ccc(OC(F)F)cc1)C(=O)/C=C/c1ccc(S(=O)(=O)N2CCOCC2)cc1 | 22.8 (≈ 48.9 µM)
COc1ccc(C(=O)NCCSCc2cccc(Cl)c2)cc1OC | 6.3 (≈ 17.2 µM)
C/C(=N\OC(=O)Nc1ccc(Cl)cc1)c1ccc(F)c(F)c1 | 5.2 (≈ 16 µM)
Cc1onc(-c2c(Cl)cccc2Cl)c1C(=O)N(C)Cc1ccccc1 | 40.9 (≈ 109 µM)
CC(=O)Nc1ccc(OCCOc2ccc(NC(C)=O)cc2)cc1 | 2.2 (≈ 6.7 µM)
O=C(Nc1ccc(S(=O)(=O)N2CCOCC2)cc1)c1ccccc1 | > 52
Cc1ccc(Nc2c(-c3ccccc3O)nc3ncccn23)cc1 | 0.7 (≈ 2.21 µM)
CCCCN(C(=O)c1cc(-c2ccncc2)nc2ccccc12)c1c(N)n(CC(C)C)c(=O)[nH]c1=O | 10 (≈ 20.6 µM)
CN(CCc1ccccc1)C1CCCN(S(=O)(=O)N(C)C)C1 (centres undefined) | > 48.8
Cc1ccsc1C(=O)N[C@@H](C)c1nnc2ccccn12 | > 43
COc1ccc(/C=C(\C#N)C(=O)ONC2=NCCCCC2)cc1 | 42.8 (≈ 137 µM)
CNc1ccc(Oc2c(F)c(F)nc(F)c2F)cc1 | 6 (≈ 22 µM)
O=C(CCc1nc(-c2ccccc2F)no1)Nc1cccnc1 | > 46.8
CCc1ccc(C(=O)CN2C(=O)NC(C)(c3ccc(C)cc3)C2=O)cc1 (centres undefined) | 2.1 (≈ 5.99 µM)
COc1ccc(C(=O)CCC(=O)Nc2cccnc2)cc1OC | > 47.2
NC(=O)COC(=O)Cc1coc2cc3c(cc12)CCC3 | 35.6 (≈ 130 µM)
NC(=O)c1ccccc1NC(=O)COC(=O)CSCc1cccc(Cl)c1 | 10.8 (≈ 27.5 µM)
CC1CN(c2nc(Nc3ccccc3F)nc(N)c2[N+](=O)[O-])CC(C)O1 (centres undefined) | > 54.4
CCOc1ccc2nc(N(CCN(C)C)C(=O)/C=C/c3cccs3)sc2c1.Cl | < 0.3
Clc1ccc(CN2CCN(c3ncccn3)CC2)cc1Cl | 13 (≈ 40.2 µM)
CN(Cc1ccccc1)Cc1c(O)ccc2ccccc12 | 26.6 (≈ 95.9 µM)

Compound | solubility kinetic [µg/mL]
Cc1cccc(S(=O)(=O)Nc2ccncc2)c1 | 28.1 (≈ 113 µM)
CC(NC(=O)c1ccncc1)c1ccc(Cl)cc1Cl (centres undefined) | > 44.3
COc1ccc(C2Nc3ccccc3NC3=C2C(=O)CC(C)(C)C3)cc1O (centres undefined) | 34.7 (≈ 95.2 µM)
CC(C)C(=O)Nc1ncc(Cc2ccccc2Cl)s1 | < 0.3
Cc1cccc2c1NC(=O)C2(O)N1CCCC(C)C1 (centres undefined) | > 39.1
CC(C)c1ccccc1NC(=S)NC1CCCCC1 | > 41.5
Cc1ccc(NC(=O)CNC(=O)C2CCCCC2)nc1 | > 41.3
Cc1ccc(S(=O)(=O)N(C)C)cc1NC(=O)CN1CCCC1 | > 48.8
COc1ccc(OC)c(NC(=O)Cc2cccs2)c1 | 30.4 (≈ 110 µM)
CCN(CC)c1ccc(NC(=O)c2ccc3c(c2)OCO3)cc1 | 6.4 (≈ 20.5 µM)
Cc1cccc(NC(=O)CC(=O)Nc2cccc(C)c2)c1 | 5.7 (≈ 20.2 µM)
C=CCN1C(=S)N[C@@H]2CS(=O)(=O)C[C@@H]21 | > 34.8
O=C(c1cc(-c2ccc(Cl)cc2Cl)on1)N1CCCC1 | 1.8 (≈ 5.78 µM)
O=C(COC(=O)Cc1cccc(C(F)(F)F)c1)NC(=O)NC1CCCC1 | 32.1 (≈ 86.2 µM)
Cc1ccc(NC(=O)C2CCN(S(=O)(=O)c3cc([N+](=O)[O-])ccc3Cl)CC2)nc1 | 16 (≈ 36.5 µM)
CC(C)Cn1c(N)c(C(=O)COC(=O)c2cccn2C)c(=O)n(C)c1=O | > 54.4
CC(C)=CC(=O)OCC(=O)Nc1cc(C)cc(C)c1 | 3.7 (≈ 14.2 µM)
O=C(Cc1ccccc1)Nc1cc([N+](=O)[O-])ccc1N1CCOCC1 | 9.8 (≈ 28.7 µM)
CCc1nc(=O)c(-c2ccccc2)c(C)n1-c1ccccc1 | > 43.6
Cc1ccccc1CN1CCc2cc([N+](=O)[O-])ccc21 | 1.9 (≈ 7.08 µM)
COc1ccccc1NC(=O)/C(=C/c1cccs1)NC(=O)c1ccco1 | > 55.3
O=C(Nc1cccc(Cl)c1)C1CCCN(c2cnccn2)C1 (centres undefined) | > 47.5
CC1(C)C(=O)Nc2ccccc2N1C(=O)COc1ccccc1C#N | 21.5 (≈ 64.1 µM)
COc1ccc(NS(=O)(=O)c2cc(C(=O)NNC(=O)c3ccncc3)ccc2OC)c(OC)c1 | > 73

Compound | solubility kinetic [µg/mL]
COc1nc(-c2ccccc2)nc(C)c1CC(=O)O | > 38.7
CC(C)(C)C(=O)Nc1cc2c3c(c1)CC(=O)N3CCC2 | 35.9 (≈ 132 µM)
C/C(N)=C(/C#N)C(=O)COC(=O)c1ccc(OCC2CCCO2)cc1 (centres undefined) | 51.5 (≈ 150 µM)
CC(=O)c1ccc(N2CCN(C(=S)NCCCN(C)C)CC2)cc1 | > 52.3
Cc1cccc(NC(=O)c2ccco2)c1C(=O)O | 34.8 (≈ 142 µM)
CCCC(=O)Nc1sc2c(c1C(=O)OCC)CC(C)(C)OC2 | 4.6 (≈ 14.1 µM)
O=C(c1ccccc1)c1cnc[nH]1 | 25.6 (≈ 149 µM)
O=C1Nc2ccccc2Nc2ccc([N+](=O)[O-])cc21 | 1.1 (≈ 4.31 µM)
COc1ccc(CNC(=O)COC(=O)CCc2c[nH]c3ccccc23)cc1 | 44.4 (≈ 121 µM)
CC(=O)c1cnc(-c2ccccc2Cl)s1 | 8 (≈ 33.7 µM)
CCCNC(=S)N1CCC(n2cnc3ccccc32)CC1 | > 45.4
COc1ccc(N2C(=O)CSC2c2cccc(F)c2)cc1 (centres undefined) | 29.2 (≈ 96.3 µM)
CC(NC(=O)OCc1ccccc1)c1ccccc1 (centres undefined) | > 38.3
O=C(COC(=O)c1c(F)cccc1F)Nc1ccc(N2CCCCC2)cc1 | 5.2 (≈ 13.9 µM)
O=C(Cc1ccc(F)cc1)NCCc1cnc[nH]1 | > 37.1
CCN(CC)S(=O)(=O)c1ccc(NC(=O)c2ccc(N3CCCC3=O)cc2)cc1 | 5 (≈ 12 µM)
Cc1nc(SCC(=O)NCC2CCCO2)[nH]c(=O)c1C (centres undefined) | > 44.6
N#Cc1cc2c(=O)n3ccccc3nc2n(-c2ccc(Cl)cc2)c1=O | 1.4 (≈ 4.01 µM)
CC1(C)Cc2ccccc2-c2nc3n(c(=O)c21)CCCS3 | 0.9 (≈ 3.02 µM)
CN1CCCN(C(=O)COc2ccc(F)cc2Cl)CC1 | > 45.1
Cc1ccc(NC(=S)NCC(O)c2ccccc2)c(C)c1 (centres undefined) | 44.3 (≈ 147 µM)
O=C(NC1CCN(C(=S)Nc2ccc(Cl)cc2)CC1)c1ccco1 | > 54.6
COc1ccc2cc(C(=O)NCc3ccccc3)[nH]c2c1.Cl | 1
CCCCN(C(=O)c1ccc2c(c1)OCO2)C1CCS(=O)(=O)C1 (centres undefined) | > 50.9

Compound | solubility kinetic [µg/mL]
CC(OC(=O)c1ccccn1)C(=O)Nc1nc(-c2ccc(F)c(F)c2)cs1 (centres undefined) | 7.9 (≈ 20.3 µM)
CNc1nc(C23CC4CC(CC(C4)C2)C3)cs1 | 13 (≈ 52.3 µM)
Cc1ccc(-c2c(C)sc3nc[nH]c(=O)c23)cc1C | 39.7 (≈ 147 µM)
Cc1cc(C)c(NC(=O)C2CCCO2)c(C)c1 (centres undefined) | > 35
CCOP(=O)(OCC)/C(C#N)=C(\O)c1ccc(OC)cc1 | > 46.7
O=C(CN1C(=O)NC2(CCCCCC2)C1=O)Nc1ccccc1[N+](=O)[O-] | 7.3 (≈ 20.3 µM)
Cc1ccnc(SCc2ccc([N+](=O)[O-])cc2)n1 | 29.7 (≈ 114 µM)
COc1ccccc1NC(=O)c1ccc(-c2ccccc2[N+](=O)[O-])o1 | 1.6 (≈ 4.73 µM)
CN(C)S(=O)(=O)c1cccc(COC(=O)c2cnccn2)c1 | 41.7 (≈ 130 µM)
Cc1cc(Oc2ccc(N)cn2)ccc1Cl | 30.8 (≈ 131 µM)
O=S(=O)(/C=C/c1ccccc1)N1CCNCC1 | > 37.8
CCOC(=O)c1cc2cc(OCc3ccccc3)ccc2nc1C | < 0.7
O=C(NC1CCCC1)C1CCCN1C(=O)Oc1ccccc1 (centres undefined) | 41.9 (≈ 139 µM)
CCN(Cc1ccccc1)C(=O)Cc1c[nH]c2ccccc12 | 33.9 (≈ 116 µM)
O=c1[nH]c2ccccc2n2c(C(F)(F)F)nnc12 | > 38.1
c1ccc(-c2csc3ncnc(NCc4ccccn4)c23)cc1 | 40.1 (≈ 126 µM)
COC(=O)C(CC(C)C)NC(=O)c1cccs1 (centres undefined) | > 38.3
CC(=O)N/C(=C\c1ccccc1)C(=O)OCc1ccc(F)cc1 | 43.4 (≈ 139 µM)
Cc1ccc(OCCCC(=O)NC2CCCCC2)cc1 | 15.7 (≈ 57 µM)
Cc1nc(Nc2ccc(Cl)cc2)c(C#N)c(=O)[nH]1 | 9.6 (≈ 36.8 µM)
Cc1ccccc1CNS(=O)(=O)c1csc(C(N)=O)c1 | > 46.6
COC(=O)Cc1c(C)nc(SCc2ccccc2)[nH]c1=O | 16.4 (≈ 53.9 µM)
CCn1cc(C2=NC(CC(C)C)CO2)c2ccccc21 (centres undefined) | 9.7 (≈ 35.9 µM)
CN(CC(O)COc1ccc2ccccc2c1)C1CCCCC1.Cl (centres undefined) | > 52.5

Compound | solubility kinetic [µg/mL]
COc1ccc(S(=O)(=O)N2CCCCCC2)cc1C(=O)NCc1ccco1 | 46.5 (≈ 118 µM)
Oc1c(Cl)cc(Cl)cc1CNc1ccccn1 | 3.1 (≈ 11.5 µM)
Cc1ccc(S(=O)(=O)N(CC(=O)N2CCOCC2)c2ccc(C(C)C)cc2)cc1 | 4.6 (≈ 11 µM)
O=C(Cc1ccccc1F)Nc1ccc2c(c1)CCC2 | 4.7 (≈ 17.5 µM)
COc1ccc(CNC(=O)CCSCc2cccc(F)c2)cc1 | > 50
FC(F)(F)c1nc(=S)c2ccccc2[nH]1 | 34.5 (≈ 150 µM)
O=C(N1CCOCC1)N1CCc2ccccc21 | 34.8 (≈ 150 µM)
COc1ccc(CCCc2n[nH]c(=S)o2)cc1C | > 39.7
N#CCC(=O)Nc1ccc(C(=O)OCC(=O)NC(=O)Nc2ccc3c(c2)OCCO3)cc1 | 10.5 (≈ 24 µM)
Cc1cc(C)c(NC(=O)Nc2ccccc2C)c(Cl)c1 | 0.8 (≈ 2.77 µM)
COC(=O)COc1cccc(NC(=O)c2cc(OC)cc(OC)c2)c1 | 49.6 (≈ 144 µM)
O=C(NCCOc1ccccc1)C(=O)NCC1CCCO1 (centres undefined) | > 43.9
CCCCCC(O)(CCN1CCCCC1)c1ccc(OCC)cc1.Cl (centres undefined) | 53.5
Cc1cc(C)c(C)c(S(=O)(=O)NCc2ccncc2)c1C | 25.8 (≈ 84.8 µM)
O=C1Nc2ccc(S(=O)(=O)N(CCO)CCO)c3cccc1c23 | > 50.5
COc1ccc2c(c1)C(=O)Nc1cc(Cl)ccc1N2 | 15.6 (≈ 56.8 µM)
Cc1ccc(SCC(=O)NC2CCCCCC2)cc1 | > 41.6
Cc1ccccc1NC(=O)CCCCC(=O)Nc1ccccc1C | 2.6 (≈ 8.01 µM)
CC(C)NC(=O)Cn1cc(C(=O)c2ccccc2)c2ccccc21 | 1.7 (≈ 5.31 µM)
Cc1cc(Cl)c2cc3ccccc3cc2n1 | 0.9 (≈ 3.95 µM)
Fc1cccc(CNc2ncnc3cc(Cl)ccc23)c1F | 3.8 (≈ 12.4 µM)
CS(=O)(=O)N1CCC(C(=O)Nc2ccc(F)c(Cl)c2)CC1 | > 50.2
O=C(NC1CCCC1)c1cc(-c2ccccc2)nc2ccccc12 | 1.4 (≈ 4.42 µM)

Reference: PubChem BioAssay AID1996
